{"source": "patent US11800867B2", "about": "“Methods of repelling biting arthropods, reducing pathogen spread and treating arthropod infestation” (priority 2016, dated 2023)", "format_in_all_cases": "in vivo", "key": {"[1]": {"system": "mosquitoes (Aedes aegypti and Culex)", "experiment": "Treated filter paper knockdown (KD) and mortality trial (Example 4), statements on both mosquito species", "experimental": "(§1) A laboratory trial was conducted to assess the efficacy of nootkatone applied to filter paper against aphids (Schizaphis gramium), dust mites (Dermatophagoides sp.), termites (Reticulitermes flavipes), deer ticks (Ixodes scapularis), biting midges (Culicoides sp.), fire ants (Solenopsis invicta), and mosquitoes (Aedes aegypti and Culex), in terms of knockdown (KD) and mortality. One concentration (1% in ethanol) of nootkatone was assessed for most species, but three concentrations (0.25%, 0.5%, and 1% in ethanol) were assessed for mosquitoes. A negative control group, consisting of filter paper treated with ethanol, was also assessed for comparison purposes for each species.\n(§2) Test systems were introduced to treated filter paper, allowed to dry, and then introduced into treatment chamber, where treated arthropods were monitored at intervals up to 72 hours. If 100% mortality was obtained prior to 72 hours, the individual study was halted.\nMidges and mosquitoes—5 replicates of 10 insects per treatment were tested. Inverted 10 ounce (295 ml) clear plastic cups with a 0.5 inch (1.27 cm) hole burned into the center of the bottom, and with the sides coated with Fluon® was used at the treatment containers. The bottoms of the containers consisted of Petri dish lids 3.54 inches (9.0 cm) in diameter lined with a treated filter paper circle the same diameter. The cup was placed over the filter paper in the lid and both were secured in place using 2 rubber bands. The insects were introduced through the hole in the cup, and a plastic disc was placed over the opening to prevent escapes.\n(§3) Readings were discontinued if treated mortality reaches […], or control mortality exceeds 20%."}, "[2]": {"system": "termites (Reticulitermes flavipes)", "experiment": "Treated filter paper knockdown (KD) and mortality trial (Example 4)", "conditions": "Nootkatone 1% in ethanol on filter paper", "experimental": "as §1, §2\nTermites—3 replicates of 10 termites were tested per treatment. One long glass tube with screened ends (to provide ventilation) was used for each test container. Test containers were placed into a larger container to prevent escapes, and were kept in darkness and at high humidity for the duration of the experiment. Filter papers were cut into strips and fitted inside the glass tubes. Two paper strips were pushed end to end to form one continuous strip, leaving a 2 mm gap running the entire length of the tube for viewing termite activity.\nas §3"}, "[3]": {"system": "fire ants (Solenopsis invicta)", "experiment": "Treated filter paper knockdown (KD) and mortality trial (Example 4)", "conditions": "Nootkatone 1% in ethanol on filter paper", "experimental": "as §1, §2\nFire ants—5 replicates of 10 insects were tested per treatment. A Petri dish lid 3.54 inches (9 cm) in diameter was inverted and serve as the substrate for a 2.75 inch (7 cm) treated filter paper circle. The small Petri dish bottom was inverted over the paper and had its sides treated with Fluon® to prevent climbing and force exposure with the filter paper. The entire Petri dish was enclosed with two rubber bands.\nas §3"}, "[4]": {"system": "deer ticks (Ixodes scapularis)", "experiment": "Treated filter paper knockdown (KD) and mortality trial (Example 4)", "conditions": "Nootkatone 1% in ethanol on filter paper", "experimental": "as §1, §2\n(§4) Deer Ticks and Dust mites—5 replicates of 10 ticks or 35 dust mites were tested per treatment. Envelopes made from treated 2.5 inch (6.35 cm) filter paper squares served as the containers. After the ticks or dust mites were placed inside the envelopes, and the openings were sealed using small binder clips.\nas §3"}, "[5]": {"system": "dust mites (Dermatophagoides sp.)", "experiment": "Treated filter paper knockdown (KD) and mortality trial (Example 4)", "conditions": "Nootkatone 1% in ethanol on filter paper", "experimental": "as §1, §2, §4, §3"}, "[6]": {"system": "bed bugs (Cimex lectularius)", "experiment": "Filter paper choice test of repelling action (Example 6)", "experimental": "An in vitro laboratory trial was required to assess the repelling action of nootkatone applied to filter paper against cat fleas (Ctenocephalides felis), deer ticks (Ixodes scapularis), bed bugs (Cimex lectularius), and termites (Reticulitermes flavipes) in a choice test design.\nThe sponsor provided a sample of nootkatone (98%), which was diluted in ethanol to a 0.5% concentration. The treatment was applied to filter paper at a rate of 1 mL for a 9 cm filter paper disc, and a rate of 1.9 mL for a 15 cm filter paper disc. A negative control group, consisting of untreated filter paper, was also assessed for comparison purposes.\nBed bugs: Petri dishes (9 cm) were modified by cutting a circular hole in the bottom of a clean petri plate. Fine mesh nylon cloth was fastened to the bottom using adhesive, covering the hole. The petri plate was then inverted, with the screened bottom serving as the top. Treated and untreated filter papers were cut in half and fitted into the new bottom of the test containers. Treated replicates received one half treated and one half untreated filter paper; negative control replicates received only untreated filter paper.\nBed bugs: Bed bugs were placed in the center of each test container and covered with the fine-mesh lid. The containers were kept in darkness at ambient laboratory conditions for 24 hours. At the end of the exposure period, the distribution (on or under each filter paper) of bed bugs was recorded.\nThe number of insects in each location was converted to a percentage, for which the average and standard error were calculated across all five replicates.\nPercent repellency was calculated with the following formula: % repellency=(1−((t/T)/(c/C)))*100 • Where t=number of insects on treated side of treated arena • T=total number of insects in treated arena • c=average number of insects on right side of untreated arenas • C=average total number of insects in untreated arenas"}, "[7]": {"conditions": "0.5% nootkatone in ethanol, 24 Hours post introduction, Replicates 1-5"}}, "note": "Where “and” joins values, the source holds several entries; their conditions need not be identical. Equal values may be shown once."}
{"smiles": "C=C(C)[C@@H]1CCC2=CC(=O)C[C@@H](C)[C@]2(C)C1", "note": "[Nootkatone, nootkatone]", "values": [{"measurement": "Mortality in mosquitoes", "setting": "[1]; Nootkatone 0.25% in ethanol on filter paper, the lowest tested concentration", "result": "less than 80%"}, {"measurement": "Time required for greater than 90% killing", "setting": "[1]; Nootkatone 1% in ethanol on filter paper", "result": 24, "unit": "h"}, {"measurement": "Affected (knockdown+mortality) mosquitoes in both species", "setting": "[1]; Nootkatone 1% in ethanol on filter paper, by 8 hours post treatment", "result": "at least 80%"}, {"measurement": "Mortality in mosquitoes during the experimental duration", "setting": "[1]; Nootkatone at 1% concentration in ethanol on filter paper, both mosquito species", "result": "94-100%"}, {"measurement": "Mortality in both mosquito species", "setting": "[1]; nootkatone 0.5% in ethanol on filter paper, by 72 hours post treatment", "result": "82-95%"}, {"measurement": "Time required for greater than 90% killing", "setting": "[2]", "result": 72, "unit": "h"}, {"measurement": "Means Affected", "setting": "[2]; 30 minutes post introduction", "result": 0.0, "unit": "%"}, {"measurement": "Means Dead", "setting": "[2]; 30 minutes post introduction", "result": 0.0, "unit": "%"}, {"measurement": "Means KD", "setting": "[2]; 30 minutes post introduction", "result": 0.0, "unit": "%"}, {"measurement": "Means Affected", "setting": "[2]; 1 hour post introduction", "result": 0.0, "unit": "%"}, {"measurement": "Means Dead", "setting": "[2]; 1 hour post introduction", "result": 0.0, "unit": "%"}, {"measurement": "Means KD", "setting": "[2]; 1 hour post introduction", "result": 0.0, "unit": "%"}, {"measurement": "Means Affected", "setting": "[2]; 4 hours post introduction", "result": 0.0, "unit": "%"}, {"measurement": "Means Dead", "setting": "[2]; 4 hours post introduction", "result": 0.0, "unit": "%"}, {"measurement": "Means KD", "setting": "[2]; 4 hours post introduction", "result": 0.0, "unit": "%"}, {"measurement": "Means Affected", "setting": "[2]; 24 hours post introduction", "result": 83.3, "unit": "%"}, {"measurement": "Means Dead", "setting": "[2]; 24 hours post introduction", "result": 0.0, "unit": "%"}, {"measurement": "Means KD", "setting": "[2]; 24 hours post introduction", "result": 83.3, "unit": "%"}, {"measurement": "Means Affected", "setting": "[2]; 48 hours post introduction", "result": 86.7, "unit": "%"}, {"measurement": "Means Dead", "setting": "[2]; 48 hours post introduction", "result": 86.7, "unit": "%"}, {"measurement": "Means KD", "setting": "[2]; 48 hours post introduction", "result": 0.0, "unit": "%"}, {"measurement": "Means Affected", "setting": "[2]; 72 hours post introduction", "result": 90.0, "unit": "%"}, {"measurement": "Means Dead", "setting": "[2]; 72 hours post introduction", "result": 90, "unit": "%"}, {"measurement": "Means KD", "setting": "[2]; 72 hours post introduction", "result": 0.0, "unit": "%"}, {"measurement": "Time required for greater than 90% killing", "setting": "[3]", "result": 24, "unit": "h"}, {"measurement": "Means Affected", "setting": "[3]; 30 minutes post introduction", "result": 0.0, "unit": "%"}, {"measurement": "Means Dead", "setting": "[3]; 30 minutes post introduction", "result": 0.0, "unit": "%"}, {"measurement": "Means KD", "setting": "[3]; 30 minutes post introduction", "result": 0.0, "unit": "%"}, {"measurement": "Means Affected", "setting": "[3]; 1 hour post introduction", "result": 0.0, "unit": "%"}, {"measurement": "Means Dead", "setting": "[3]; 1 hour post introduction", "result": 0.0, "unit": "%"}, {"measurement": "Means KD", "setting": "[3]; 1 hour post introduction", "result": 0.0, "unit": "%"}, {"measurement": "Means Affected", "setting": "[3]; 4 hours post introduction", "result": 22.0, "unit": "%"}, {"measurement": "Means Dead", "setting": "[3]; 4 hours post introduction", "result": 0.0, "unit": "%"}, {"measurement": "Means KD", "setting": "[3]; 4 hours post introduction", "result": 22.0, "unit": "%"}, {"measurement": "Means Affected", "setting": "[3]; 24 hours post introduction", "result": 100.0, "unit": "%"}, {"measurement": "Means Dead", "setting": "[3]; 24 hours post introduction", "result": 100, "unit": "%"}, {"measurement": "Means KD", "setting": "[3]; 24 hours post introduction", "result": 0.0, "unit": "%"}, {"measurement": "Means Dead", "setting": "[3]; 24 hours post introduction, listed as nootkatone", "result": 100, "unit": "%"}, {"measurement": "Time required for greater than 90% killing", "setting": "[4]", "result": 72, "unit": "h"}, {"measurement": "Means Affected", "setting": "[4]; 24 hours post introduction", "result": 100.0, "unit": "%"}, {"measurement": "Means Dead", "setting": "[4]; 24 hours post introduction", "result": 36.0, "unit": "%"}, {"measurement": "Means KD", "setting": "[4]; 24 hours post introduction", "result": 62.0, "unit": "%"}, {"measurement": "Means Affected", "setting": "[4]; 48 hours post introduction", "result": 100.0, "unit": "%"}, {"measurement": "Means Dead", "setting": "[4]; 48 hours post introduction", "result": 82.0, "unit": "%"}, {"measurement": "Means KD", "setting": "[4]; 48 hours post introduction", "result": 16.0, "unit": "%"}, {"measurement": "Means Affected", "setting": "[4]; 72 hours post introduction", "result": 100.0, "unit": "%"}, {"measurement": "Means Dead", "setting": "[4]; 72 hours post introduction", "result": "100% and 98%"}, {"measurement": "Means KD", "setting": "[4]; 72 hours post introduction", "result": 0.0, "unit": "%"}, {"measurement": "Time required for greater than 90% killing", "setting": "[5]", "result": 72, "unit": "h"}, {"measurement": "Means Affected", "setting": "[5]; 72 hours post introduction", "result": 100.0, "unit": "%"}, {"measurement": "Means Dead", "setting": "[5]; 72 hours post introduction", "result": 100, "unit": "%"}, {"measurement": "Means KD", "setting": "[5]; 72 hours post introduction", "result": 0.0, "unit": "%"}, {"measurement": "Repellency (conclusion in words)", "setting": "[6]; 0.5% nootkatone in ethanol on filter paper", "result": "highly repellent"}, {"measurement": "Raw data: number of bed bugs on Treated half of treated arena, per replicate", "setting": "[6]; [7]", "result": "0 (4×) and 1"}, {"measurement": "Raw data: number of bed bugs on Untreated half of treated arena, per replicate", "setting": "[6]; [7]", "result": "10 (4×) and 9"}, {"measurement": "Calculated percent repellency (average ± SE)", "setting": "[6]; nootkatone (98%) 0.5% in ethanol on filter paper, half treated, half untreated arena, 24 hours", "result": "93.9 ± 6.1", "unit": "%"}]}
